Data from EP0199840B1, “Use of a diamine for the preparation of a softener for erythrocytes” (Barnikol, Wolfgang, Prof. Dr.Dr., priority 1985, dated 1986).

Test system: Erythrozyten
Assay: Erythrocyte filtration test: specific filtration time (FZsp) of an 8% suspension of purified erythrocytes through 5 µm polycarbonate (Nuclepore) membrane filters
Assay type: cell-based, gesunden Probanden
Settings: for Wirkung auf FZsp compared with Ausführungsbeispiel 1 (result in words): carried out as in Ausführungsbeispiel 1 (0 to 100 mmol/I; 1,5 Stunden; pH=7,4; 22°C; there FZsp reduced to 30% at 50 mmol/I)
Text: Es wurde nun gefunden, daß es, um die Erythrozyten-weichmachende Wirkung einer Substanz mit Hilfe eines Filtrationstests festzustellen, unerlässlich ist, die Erythrozyten quantitativ von den andern Blutzellen abzutrennen, weil auch sehr geringe Zellverunreinigungen den Test übermä-βig stark stören Daher wurde ein Testverfahren einschließlich eines Reinigungsverfahrens mit Hilfe der Dichtezentrifugation in synthetischem Polysaccharid (Ficoll® 400, Deutsche Pharmazia, Freiburg, Bundesrepublik Deutschland) erarbeitet; als Literaturstelle sei hingewiesen auf: Barnikol et al., Funkt, Biol. Med. 1 (1982), 242-244.
Im Prinzip wird hierbei die sogenannte spezifische Filtrierzeit (FZsp) einer 8%igen Erythrozytensuspension an 5 um Polycarbonat (Nuclepore-^@) Membran-filtern bestimmt. Das Meßverfahren wurde insofern gegenüber der ursprünglichen Vorschrift modifiziert, als nunmehr lediglich die Anfangsgeschwindigkeit gemessen wird, also je nach Dauer variable Tropfenzahlen vermessen werden, sowie der Zeitbedarf für eine bestimmte Tropfenzahl, nämlich 10, bereichnet wurde.
Es gilt die Formel [formula] wobei: • t=Filtrierzeit für 10 Tropfen der Suspension • to=Filtrierzeit für 10 Tropfen des Suspensionsmittels • FZsp ist ein Maß für die Steifigkeit.
Erthrozyten von mehreren gesunden Probanden werden wie oben angegeben (Barnikol et al., 1982) präpariert und eine 8 Vol.-%ige Zellsuspension hergestellt unter Zugabe von Glukose (100 mg/dl). Den Suspensionen werden steigende Mengen von DMAEA von 0 bis 100 mmol/I zugesetzt. Die Proben werden 1,5 Stunden unter langsamen Schwenken belassen bei pH=7,4 und 22°C und danach FZsp gemessen: Bei 50 mmol/I wird FZsp auf 30% des Ausgangswertes verringert.

`CN(C)CCN` [DMAEA, Dimethylaminoethylamin] was tested, and the activity at 50000 µM (Homo sapiens, Erythrocyte, 1.5 h, pH 7.4, 50 mmol/I, 8 Vol.-%ige Zellsuspension with Glukose (100 mg/dl), 1,5 Stunden, pH=7,4, 22°C, read-out: FZsp (spezifische Filtrierzeit), % des Ausgangswertes) was 30%.

For `CC(=O)CCCCn1c(=O)c2c(ncn2C)n(C)c1=O` [Pentoxifyllin, 3,7-Dimethyl-1-(5-oxohexyl)-xanthin, reference compound], the “Wirkung auf FZsp (result in words)” value (0,1 mmol/1 to 15 mmol/I, 22°C, pH=7,40, FZsp not significantly reduced) was “unwirksam”.

With `CCN(CC)CCN(CC)CC` [TEEDA, Tetraethylethylendiamin] the “Wirkung auf FZsp compared with Ausführungsbeispiel 1 (result in words)” value was “gleich Wirkung”.

For `CN(C)CCN(C)C` [TMEDA, Tetramethylethylendiamin], the “Wirkung auf FZsp compared with Ausführungsbeispiel 1 (result in words)” value was “gleiche Wirkung”.
